Measured values from US5478939A, “(R,R) and (S,S) 2,5-diazabicyclo [2,2,1]heptane derivatives” (priority 1994, dated 1995).
pKi: −log10 of the molar value. Counter-ions that a name gives are not always drawn.

Tests used:
[1] = target: muscarinic cholinergic receptor (high affinity agonist conformation); test: [3H]-cis-Methyldioxolane (3H-CD) Binding Assay (High Affinity), cerebral cortex; conditions: 3H-CD 1.0 nM, rat cerebral cortex, 25° C., 120 minutes, pH 7.4; read-out: Ki, ^3 H-CD (ctx)
[2] = target: muscarinic cholinergic receptor; test: [3H] Quinuclidinyl Benzilate (QNB) Binding Assay, cerebral cortex; conditions: 3H-QNB 0.25 nM, rat cerebral cortex, 25° C., 120 minutes, pH 7.4; read-out: Ki, ^3 H-QNB (ctx)

Structure (SMILES) | pKi [1] | pKi [2]
CC(C)(C)OC(=O)N1C[C@H]2C[C@@H]1CN2c1cnccn1 [Example 3, (R,R)-2-(tert-Butyloxycarbonyl)-5-(2-pyrazinyl)-2,5-diazabicyclo[2.2.1]heptane] | < 3.00 | –
Cc1nsc(N2C[C@H]3C[C@@H]2CN3C(=O)OC(C)(C)C)n1 [Example 5] | 4.23 | < 3.00
CC(C)(C)OC(=O)N1C[C@H]2C[C@@H]1CN2c1ncns1 [Example 7] | < 3.00 | –
CC(C)(C)OC(=O)N1C[C@@H]2C[C@H]1CN2c1ncns1 [Example 8, (S,S)-2-(tert-Butyloxycarbonyl)-5-(1,2,4-thiadiazol-5-yl)-2,5-diazabicyclo[2.2.1]heptane] | 4.01 | –
Cc1noc(N2C[C@H]3C[C@@H]2CN3C(=O)OC(C)(C)C)n1 [Example 9, (R,R)-2-(tert-Butyloxycarbonyl)-5-(3-methyl-1,2,4-oxadiazol-5-yl)-2,5-diazabicyclo[2.2.1]heptane] | 4.74 | –
Cc1noc(N2C[C@@H]3C[C@H]2CN3C(=O)OC(C)(C)C)n1 [Example 10] | 4.36 | –
c1cnc(N2C[C@H]3C[C@@H]2CN3)cn1 [Example 11, (R,R)-2-(2-Pyrazinyl)-2,5-diazabicyclo[2.2.1]heptane hydrochloride] | 7.00 | 5.51
c1cnc(N2C[C@@H]3C[C@H]2CN3)cn1 [Example 12, (S,S)-2-(2-Pyrazinyl)-2,5-diazabicyclo[2.2.1]heptane hydrochloride] | 5.89 | 4.94
Cc1nsc(N2C[C@@H]3C[C@H]2CN3)n1 [Example 13, (S,S)-2-(3-Methyl-1.2,4-thiadiazol-5-yl)-2,5-diazabicyclo[2.2.1]heptane] | 4.89 | –
Cc1nsc(N2C[C@H]3C[C@@H]2CN3)n1 [Example 14, (R,R)-2-(3-Methyl-1,2,4-thiadiazol-5-yl)-2,5-diazabicyclo[2.2.1]heptane] | 6.05 | 4.61
c1nsc(N2C[C@@H]3C[C@H]2CN3)n1 [Example 15, (S,S)-2-(1,2,4-Thiadiazol-5-yl)-2,5-diazabicyclo[2.2.1]heptane] | 4.53 | < 3.00
c1nsc(N2C[C@H]3C[C@@H]2CN3)n1 [Example 16, (R,R)-2-(1,2,4-Thiadiazol-5-yl) -2,5-diazabicyclo[2.2.1]heptane] | 6.52 | < 3.00
Cc1noc(N2C[C@@H]3C[C@H]2CN3)n1 [Example 17, (S,S)-2-(3-Methyl-1,2,4-oxadiazol-5-yl)-2,5-diazabicyclo[2.2.1]heptane] | 5.27 | < 3.00
Cc1noc(N2C[C@H]3C[C@@H]2CN3)n1 [Example 18, (R,R)-2-(3-Methyl-1,2,4-oxadiazol-5-yl)-2,5-diazabicyclo[2.2.1]heptane] | 6.40 | 4.33
CN1C[C@@H]2C[C@H]1CN2c1cnccn1 [Example 19, (S,S)-2-Methyl-5-(2-pyrazinyl)-2,5-diazabicyclo[2.2.1]heptane] | 6.40 | 5.26
Cc1cnc(C)c(N2C[C@@H]3C[C@H]2CN3C)n1 [Example 22, (S,S)-2-(3,6-Dimethylpyrazin-2-yl)-5-methyl-2,5-diazabicyclo[2,2.1]heptane] | 6.15 | 5.92
CN1C[C@@H]2C[C@H]1CN2c1nccnc1Cl [Example 23, (S,S)-2-(3-Chloropyrazin-2-yl)-5-methyl-2,5-diazabicyclo[2.2.1]heptane] | 6.05 | 5.64
CN1C[C@@H]2C[C@H]1CN2c1cncc(Cl)n1 [Example 24, (S,S)-2-(6-Chloropyrazin-2-yl)-5-methyl-2.5-diazabicyclo[2.2.1]heptane] | 5.70 | 5.35
Cc1nsc(N2C[C@@H]3C[C@H]2CN3C)n1 [Example 26, (S,S)-2-Methyl-5-(3-methyl-1,2,4-thiadiazol-5-yl)-2,5-diazabicyclo[2.2.1]heptane] | 6.70 | 6.30
CN1C[C@@H]2C[C@H]1CN2c1sccc1[N+](=O)[O-] [Example 28, (S,S)-2-Methyl-5-(3-nitro-2-thienyl)-2,5-diazabicyclo[2.2.1]heptane] | 5.01 | < 3.00
CN1C[C@@H]2C[C@H]1CN2c1ccc([N+](=O)[O-])s1 [Example 29, (S,S)-2-Methyl-5-(5-nitro-2-thienyl)-2,5-diazabicyclo[2.2.1]heptane] | 5.17 | 4.88
CN1C[C@@H]2C[C@H]1CN2c1ccccc1[N+](=O)[O-] [Example 30, (S,S)-2-Methyl-5-(2-nitrophenyl)-2,5-diazabicyclo[2.2.1]heptane] | 5.96 | 5.80
COc1cncc(N2C[C@@H]3C[C@H]2CN3C)n1 [Example 32, (S,S)-2-Methyl-5-(6-methoxypyrazin-2-yl)-2,5-diazabicyclo[2.2.1]heptane] | 6.52 | 6.40
Cc1nccnc1N1C[C@@H]2C[C@H]1CN2C [Example 35, (S,S)-2-Methyl-5-(3-methylpyrizin-2-yl)-2,5-diazabicyclo[2.2.1]heptane] | 5.77 | 5.20
CN1C[C@H]2C[C@@H]1CN2c1cnccn1 [Example 36, (R,R)-2-Methyl-5-(2-pyrazinyl)-2,5-diazabicyclo[2.2.1]heptane] | 5.19 | < 3.00
